The values that follow come from a melting point compilation (Tetko et al.; mined from patent text by program, amines drawn as free bases though some values may be those of a salt).

A value given as a limit tells only on which side of the number the result lay.

Turning to `CC(=O)Oc1nc2c(N)ncnc2n1Cc1ccccc1`, the melting point (in general, the temperature of the solid-liquid transition) lay in the range of 189 to 191 °C.

The molecule `CCCCc1nc2c(N)nc3cc(CCc4ccccc4)ccc3c2n1CC(C)C` had a melting point of 181 to 182 °C.

For the molecule `CCCCC(=O)OCC=C(C)CCC=C(C)CCC=C(C)CCC=C(C)CCC=C(C)CCC=C(C)CCC=C(C)CCC=C(C)CCC=C(C)C`, the melting point lay within 34 to 35 °C. In the case of `CNS(=O)(=O)Cc1cc(Br)c(NC(=O)C(F)(F)F)c(Br)c1`, the melting point was 179 to 180 °C.

The molecule `CC#CCOc1cc(-c2ccccc2)ncn1` yielded a melting point of 59.6 °C. The molecule `CC(C)(C)C(CO)NC(=O)C(CC(=O)O)N1C=CN(c2ccc(-c3ccccc3)cc2)C1` (mixture of isomers) came in with a melting point of 145 to 150 °C. The molecule `N#Cc1cnc2sc(C#Cc3ccncc3)cc2c1Nc1ccc2[nH]ccc2c1` came in with a melting point of more than 250 °C. The molecule `c1cn(CCCc2ccc(OCc3coc(-c4ccsc4)n3)cc2)cn1` showed a melting point of 102 to 103 °C. Take `CC1(C)OC(c2ccc(S(C)(=O)=O)cc2)=C(c2cc(F)cc(F)c2)C1=O`: the melting point fell in the range of 141 to 142 °C. `CSc1ccc(-c2cn3c(c2-c2ccccc2)CCC3)cc1` came in with a melting point of 112 °C. Turning to `O=C(O)C(O)N1C(=O)CCN1c1cccc(F)c1` (stereo not given), the melting point was 115 to 116 °C. `CCCc1nc2c(N)nc3cc(OC)ccc3c2s1` returned a melting point of 152 to 154 °C. As to `Cc1oc2c(C)cc(C3CC(=O)OC(=O)C3)cc2c1C`, the melting point turned out to be 170 °C. In the case of `CC(C)(CF)C(=O)C(Oc1ccc(Cl)cc1)n1cncn1` (stereo not given) it was 60 to 63 °C.

The molecule `CC(=O)Oc1cc2c(c([N+](=O)[O-])c1OC(C)=O)C(=O)C(C)(C)CC2` showed a melting point of 145 to 147 °C. In the case of `Cc1cc(C)cc(S(=O)(=O)c2cccc(N)c2C#N)c1`, the melting point was in the range of 208 to 209 °C. `CCCCCCCCc1cc(C=O)co1` came in with a melting point of 25 °C.

On to `c1ccc2oc(-c3nc(COc4ccc(CCCn5ccnc5)cc4)co3)cc2c1`, for which the melting point was 122 to 123 °C. Molecule `CCOC(=O)c1[nH]c2cc(Cl)cc(Cl)c2c1NCCC(=O)c1ccccc1` displayed a melting point of 195 to 197 °C.

For `CCCCCCCCCCCCCCCCSC(=O)Nc1ccc(NC(=O)NS(=O)(=O)c2ccc3ccccc3c2)cc1`, the melting point turned out to be 190 °C. Take `O=CNc1cccc(C(=NOC(=O)C(Cl)Cl)C(=O)O)n1`: the melting point lay in the range of 88 to 90 °C. As to `O=C(NCCc1c[nH]c2ccccc12)c1cccnc1`, the melting point is 150 to 152 °C. To `CCOP(=O)(OCC)c1ccc2cccc(-c3cccc4ccccc34)c2n1` belongs 128 °C.

`O=C(O)c1ccc(COCc2csc3nc(C(=O)NCc4ccc(F)c(Cl)c4)[nH]c(=O)c23)cc1`: the melting point was 228 to 230 °C. In turn, `CCN1C(=O)C(C)(C)C(=O)N(C)c2cc(C(=O)O)ccc21` displayed a melting point of 296 to 299 °C. Molecule `CCCC(=O)N1N=C(c2ccc([N+](=O)[O-])cc2)c2cc(Cl)c(Cl)cc2CC1C` (stereo not given) had a melting point of 75 to 77 °C. In the case of `Cc1cccc(COc2cccc3c2CN(C2CCC(=O)NC2=O)C3=O)c1` (stereo not given) it was 244 to 246 °C; in that of `Cc1cn(-c2ccc(N)c(C(F)(F)F)c2)c(C)n1`, 126 to 127 °C; in that of `CC1(C)Cc2c(c(O)cc3c2C(c2cccc(Br)c2)=NCC3(C)C)O1`, 230 to 235 °C.

The molecule `CC1=C(c2ccccc2)C(=O)N(C(C)(C)c2cccc(Cl)c2)CC1` gave a melting point of 117 to 118 °C. In the case of `CC(=NC(=Nc1ccccc1)N1CCOCC1)NC(C)(C)C` it was 164 to 166 °C; in that of `Cc1c2c(nc3ccccc13)CCN(C(=O)c1ccc(Cl)cc1)CC2`, 163 °C. To `O=[N+]([O-])c1ccc2c(c1)CN[C@H](CO)C2` belongs 184 °C; to `Clc1ccc(OCc2ccccc2)c(OCc2ccccc2)c1Cl`, 74 to 75.5 °C. To `COc1ccc(OCC(O)CNCCNc2c(C)c(=O)n(C)c(=O)n2C)cc1OC` (stereo not given) belongs 103 to 104 °C.
